Legend:
ABCB1 [1] = target: T1, ABCB1 (Homo sapiens, UniProt P08183); test: ABCB1 functionality assay: rhodamine 123 intracellular accumulation in HEK293 recombinant cells; type: cell-based; conditions: 5 μM Rh123, 90 min, PBS condition
T1 construct: expressed in transfected cells
Method: First, we tested the impact of FW on the intrinsic ABCB1 efflux functionality. The intracellular accumulation of rhodamine 123 (Rh123), a fluorescent-specific substrate of ABCB1 [39, 40], was performed in HEK293 recombinant cells. Rh123 accumulation was compared between control cells (Control plasmid) expressing low basal levels of ABCB1 and stably transfected cells overexpressing ABCB1 (ABCB1 plasmid), pre-exposed or not to FW for 15 min (Fig. 8A).
Briefly, HEK293 cells were transfected with a plasmid encoding for ABCB1 (ABCB1 plasmid) or an empty vector (control plasmid). HEK293 cells feature low endogenous levels of expression of ABCB1, ensuring that all ABCB1 expression originates from the transfection process. […] Finally, the cells were washed with buffer and resuspended before being analysed using a BD FACSVerse flow cytometer (for characterization) or BD FACSAria III (for cell sorting) and the BD FACSuite software (BD Bioscience, USA). […]
One day before the experiment, 9*10^4 cells (HEK293) were plated in poly-L-lysine-coated black 96-well plates in complete medium. […] Finally, the intracellular fluorescence of Rh123 was analysed by a fluorimeter SpectraMax i3x (Molecular Devices, USA); excitation wavelength was set at 485 nm and emission at 530 nm.

[2] = Tacrolimus whole blood pharmacokinetics after oral gavage in mice (HPLC-MS/MS, population PK model); conditions: for AUC: TAC AUC (population PK-derived)
Method: TAC was suspended in a mix of water and propylene glycol (90:10), 3 to 5 days before the first administration and kept at 4 °C. […] TAC was first dissolved in propylene glycol, then the water was added. The suspension was homogenized using an ultrasonic homogenizer 3 times for 15 s (QSonica Q700 sonicator, QSonica LLC., USA). TAC concentration was always checked before the first and after the last gavage to control for the dose. TAC or the vehicle was administered once a day (always at the same period) by oral gavage. A dose of 3 mg of TAC/kg of body weight was administered for 5 days, except in the dose determination study where different escalating doses (from 0.1 to 10 mg/kg of body weight) were tested (4 days of treatment).
It was administered via drinking water and renewed every other day.
Zosuquidar (ZSQ) was suspended in aqueous 0.5% methylcellulose (based on Matsuda et al.). A single dose of 30 mg/kg of body weight was administered 15 min before last TAC administration by oral gavage (based on Kono et al.).
Fresh faeces were collected and quickly frozen on dry ice before storage at − 80 °C until further analysis or use. Whole blood samples were collected from the tail of awake freely moving mice, at various time points (ranging from 1 to 24 h = T0, after last gavage). The blood sampling strategy used to generate the concentration–time curve of TAC blood levels in mice is detailed in the Supporting information. Before necropsy, mice were fasted for minimum 4 h and anesthetized with ketamine-xylazine or isoflurane. Hepatic and intestinal tissues were quickly collected and frozen in liquid nitrogen before storage at − 80 °C until further analysis.
Blood quantification of TAC was performed on a high-performance liquid chromatography-tandem mass spectrometry (HPLC–MS/MS) method, as already described elsewhere and further optimized for the small amounts of blood available in mouse PK studies. Briefly, the Agilent HPLC 1290 Infinity system is coupled to the 6460 Triple Quadrupole instrument. Fifty microlitres of whole blood was pre-treated and vortexed with 50 μl zinc sulfate 0.1 M, and 125 μl internal standard (ascomycin, 5 μg/L) in methanol. Samples were sonicated for 5 min, before 5 min of centrifugation at 13,500 rpm. Forty microlitres of the supernatant was injected into the system. The precolumn used was the 10 × 4 mm 3 μm Mercury Phenomenex, and the analytical column was the 4.6 × 50 mm 1.8 μm Agilent Zorbax Eclipse XDB C18, maintained at 60 °C. The mobile phase of pump 1 contained a mixture of H2O/methanol (40/60%), and pump 2 2 mM NH4^+ acetate, and aqueous 0.5% formic acid/ methanol (5/95%). […] The method is fully validated in terms of analytical performance (limit of quantification: 0.5 ng/ml; imprecision < 5%) and ion suppression effects. The laboratory participates to the TAC International Proficiency Testing Scheme (ASI, London, UK).
All data generated in this project (n = 351 PK data) were used to develop a population PK model of TAC in mice at steady-state with an average number of observations per subject of 3.5. Population PK modeling of TAC blood concentrations was performed with MonolixSuite-2020R1 software (Lixoft, France) using the stochastic approximation expectation–maximization (SAEM) algorithm. Between-subject variability (eta) was described using an exponential model and covariance between random effects was investigated. Three error models (i.e. proportional, additive and combined) to describe the residual error were tested. The influence of mouse treatment on PK parameters was also investigated through its association with the eta of PK parameters. Additional information on the building of the population PK model (e.g. the precise description of number of measurements per time points) is provided in the Supporting Information.

gut microbiota = test: Faecal microbiota composition by 16S rRNA gene sequencing in TAC-treated mice; type: in vivo
Method: (§1) Genomic DNA was extracted from faeces using a QIAamp DNA Stool Mini Kit (Qiagen, Germany), including a bead-beating step. Absolute quantification of the total bacteria was performed by quantitative polymerase chain reaction (qPCR) using the primers Bacteria Universal P338f ([…]) and P518r ([…]). 16S rRNA gene sequencing and ensuing bioinformatics and biostatistics analyses (including amplicon sequence variants (ASV) identification) were performed as previously described. Full details are provided in the Supporting Information.
To evaluate the potential impact of TAC oral administration on the gut microbiota composition, we compared the faecal bacterial composition of mice treated with TAC (TAC) or with the vehicle (CTL). Faeces were collected at baseline (day 0) and after 2 and 5 days of treatment.
To assess the impact of ATB on the bacterial load, genomic DNA was extracted from faeces using the QIAamp DNA Stool Mini Kit (Qiagen, Germany) according to manufacturer’s instructions, with the addition of a bead-beating step. To assess the impact of TAC on gut microbiota composition, genomic DNA was extracted from faeces following the protocol Q described by Costea et al. This protocol uses a QIAamp DNA Stool Mini Kit (Qiagen, Germany), including a bead-beating step. Treatment with RNAse A was performed (10 mg/ml, Thermo Fisher Scientific, USA). DNA concentration was determined using a NanoDrop 2000 (Thermo Fisher Scientific, USA).
Amplicon sequencing of the microbiome was done at the University of Minnesota Genomics Center. Briefly, the V5-V6 region of the 16S rRNA gene was PCR-enriched using the primer pair V5F_Nextera ([…]) and V6R_Nextera ([…]) in a 25 μl PCR reaction containing 5 μl of template DNA, […], 500 nM of final concentration of primers and 0.025 U/μl of HostStar Taq+ polymerase (Qiagen Germany). PCR-enrichment reactions were conducted as follow, an initial denaturation step at 95°C for 5 min followed by 25 cycles of denaturation (20 s at 98°C), annealing (15 s at 55°C), and elongation (1 min at 72°C), and a final elongation step (5 min at 72°C). Next, the PCR-enriched samples were diluted 1:100 in water for input into library tailing PCR. The PCR reaction was analogous to the one conducted for enrichment except with a KAPA HiFi Hot Start Polymerase concentration of 0.25 U/μl, while the cycling conditions used were as follows: initial denaturation at 95°C for 5 min followed by 10 cycles of denaturation (20 s at 98°C), annealing (15 s at 55°C), and elongation (1 min at 72°C), and a final elongation step (5 min at 72°C). The primers used for tailing are the following: F-indexing primer […][i5][…] and R-indexing primer […][i7][…] GCTCGG, where [i5] and [i7] refer to the index sequence codes used by Illumina. The resulting 10 μl indexing PCR reactions were normalized using a SequalPrep normalization plate according to the manufacturer’s instructions (Life Technologies, USA). 20 μl of each normalized sample was pooled into a trough, and a SpeedVac was used to concentrate the sample pool down to 100 μl. The pool was then cleaned using 1X AMPureXP beads and eluted in 25 μl of nuclease-free water. The final pool was quantitated by QUBIT (Life Technologies, USA) and checked on a Bioanalyzer High-Sensitivity DNA Chip (Agilent Technologies, USA) to ensure correct amplicon size. The final pool was then normalized to 2 nM, denatured with NaOH, diluted to 8 pM in Illumina’s HT1 buffer, spiked with 20% PhiX, and heat denatured at 96°C for 2 minutes immediately prior to loading. A MiSeq 600 cycle v3 kit was used to sequence the pool. Raw sequences can be found in the SRA database (project ID: PRJNA877868).
Subsequent bioinformatics analyses were performed in-house as previously described. Initial quality filtering of the reads was performed with the Illumina Software, yielding an average of 51 929 pass-filter reads per sample. […]

total bacteria = test: Absolute quantification of total faecal bacteria by qPCR; type: in vivo; conditions: CTL and TAC mice, faeces, up to 5 days
Method: as §1
To assess the impact of ATB on the bacterial load, genomic DNA was extracted from faeces using the QIAamp DNA Stool Mini Kit (Qiagen, Germany) according to manufacturer’s instructions, with the addition of a bead-beating step. […] DNA concentration was determined using a NanoDrop 2000 (Thermo Fisher Scientific, USA).
PCR was performed with a QuantStudio3 (Applied Biosystems, USA) using SYBR Green (GoTaq® qPCR mix, Promega, USA) for detection. […] Threshold was manually adjusted to reach the linear range of the log-fluorescent curves and CT values were determined using the QuantStudio software v1.4.3 (Applied Biosystems, USA). Absolute quantification was achieved through the inclusion of a standard curve (performed in duplicate) on each plate generated by diluting DNA from pure culture of L. acidophilus NCFM (five-fold serial dilution). […]

[3] = Stability of the TAC suspension for gavage; type: physicochemical; conditions: suspension in water and propylene glycol (90:10), kept at 4 °C
[4] = cited from earlier work
CYP3A = system: CYP3A; set-up: method as in PMID 11172691; conditions: in vitro; cited from earlier work
ABCB1 [5] = system: ABCB1; set-up: method as in PMID 11172691; conditions: cited from earlier work
[6] = mice, oral gavage, steady-state, mono-compartmental population PK model, mean
[7] = 5 days TAC oral vs vehicle-treated mice

T1 sequence (P08183 whole entry): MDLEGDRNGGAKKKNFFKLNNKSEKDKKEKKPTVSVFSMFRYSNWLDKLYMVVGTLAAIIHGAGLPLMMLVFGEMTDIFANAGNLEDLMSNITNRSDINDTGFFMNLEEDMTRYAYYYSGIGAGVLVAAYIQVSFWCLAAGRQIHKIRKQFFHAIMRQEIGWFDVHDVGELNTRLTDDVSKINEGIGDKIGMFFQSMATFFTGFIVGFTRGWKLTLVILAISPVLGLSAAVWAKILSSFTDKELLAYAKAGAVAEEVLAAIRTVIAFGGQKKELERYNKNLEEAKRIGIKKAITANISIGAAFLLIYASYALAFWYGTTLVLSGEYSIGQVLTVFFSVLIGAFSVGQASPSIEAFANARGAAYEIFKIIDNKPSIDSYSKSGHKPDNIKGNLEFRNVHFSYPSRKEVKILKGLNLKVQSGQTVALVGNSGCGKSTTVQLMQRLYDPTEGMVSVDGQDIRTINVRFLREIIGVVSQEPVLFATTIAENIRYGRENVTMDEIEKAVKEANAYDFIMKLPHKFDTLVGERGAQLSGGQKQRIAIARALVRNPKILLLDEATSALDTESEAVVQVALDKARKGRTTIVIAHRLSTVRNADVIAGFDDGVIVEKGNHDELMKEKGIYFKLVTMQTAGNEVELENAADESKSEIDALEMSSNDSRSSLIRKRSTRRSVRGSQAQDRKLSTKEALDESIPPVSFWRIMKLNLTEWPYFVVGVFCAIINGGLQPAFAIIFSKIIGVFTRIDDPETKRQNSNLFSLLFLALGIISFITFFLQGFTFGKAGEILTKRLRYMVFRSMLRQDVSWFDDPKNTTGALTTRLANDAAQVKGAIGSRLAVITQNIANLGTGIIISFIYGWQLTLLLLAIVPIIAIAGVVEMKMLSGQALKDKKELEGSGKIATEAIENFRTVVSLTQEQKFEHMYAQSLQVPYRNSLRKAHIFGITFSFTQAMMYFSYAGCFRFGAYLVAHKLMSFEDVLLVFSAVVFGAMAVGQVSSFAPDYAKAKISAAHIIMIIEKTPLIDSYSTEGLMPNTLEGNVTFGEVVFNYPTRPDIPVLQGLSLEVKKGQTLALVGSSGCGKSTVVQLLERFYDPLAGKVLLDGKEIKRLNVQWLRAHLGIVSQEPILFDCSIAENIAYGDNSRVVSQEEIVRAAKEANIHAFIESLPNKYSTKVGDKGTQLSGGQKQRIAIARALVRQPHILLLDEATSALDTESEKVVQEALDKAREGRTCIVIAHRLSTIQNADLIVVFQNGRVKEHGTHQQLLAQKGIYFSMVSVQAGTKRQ

SMILES: COC(=O)c1ccccc1-c1c2ccc(=N)cc-2oc2cc(N)ccc12 [Rh123, rhodamine 123]
- intracellular accumulation in ABCB1 overexpressing cells vs control cells (ABCB1 [1]): accumulated significantly less

SMILES: C=CC[C@@H]1/C=C(\C)C[C@H](C)C[C@H](OC)[C@H]2O[C@@](O)(C(=O)C(=O)N3CCCC[C@H]3C(=O)O[C@H](/C(C)=C/[C@@H]3CC[C@@H](O)[C@H](OC)C3)[C@H](C)[C@@H](O)CC1=O)[C@H](C)C[C@@H]2OC [TAC, tacrolimus]
- increase in TAC whole blood exposure ([2]; ATB-treated vs control mice, both under ZSQ supplementation): 75%
- reduction in TAC whole blood exposure ([2]; mice with lower intestinal microbial load due to antibiotics vs controls): 33%
- time of absorption peak after the last administration ([2]; mice, 3 mg/kg oral, steady-state concentration-time curve): 2 h
- Ka (absorption rate constant) [2, 6]: 1.20 h⁻¹
- V (volume of distribution) [2, 6]: 1.88 L
- Cl/F (oral clearance) ([2]; mice, oral gavage, steady-state, mono-compartmental population PK model, mean, n = 351 blood samples in 99 mice): 0.32 L/h
- concentration at 2 h ([2]; mouse, whole blood, po, 3 mg/kg): 39.1 ng/mL
- AUC ([2]; mouse, whole blood, po, 3 mg/kg, ATB-treated mice (TAC + ATB), 3 mg/kg oral 5 days, steady-state): 131 ng·h/mL
- AUC ([2]; mouse, whole blood, po, 3 mg/kg, mice treated with TAC solely, 3 mg/kg oral 5 days, steady-state): 195 ng·h/mL
- AUC ([2]; mouse, whole blood, po, TAC + ZSQ + ATB mice, ZSQ 30 mg/kg oral 15 min before last TAC administration): 618 ng·h/mL
- AUC ([2]; mouse, whole blood, po, TAC + ZSQ mice, ZSQ 30 mg/kg oral 15 min before last TAC administration): 354 ng·h/mL
- evenness of the gut microbiota (Simpson's and Heip's evenness indexes) (gut microbiota; [7]): significant reduction
- indexes combining richness and evenness (Shannon and Simpson indexes) (gut microbiota; [7]): significantly reduced
- richness (Chao1 and Observed ASV indexes) (gut microbiota; [7]): did not affect
- relative abundance of Clostridiales incertae sedis XIII (gut microbiota; family level, 5 days TAC): decrease
- relative abundance of Lachnospiraceae (gut microbiota; family level, 5 days TAC): decrease
- relative abundance of Rikenellaceae (gut microbiota; family level, 5 days TAC): increase
- relative abundance of Ruminococcaceae (gut microbiota; family level, 5 days TAC): decrease
- relative abundance of Verrucomicrobiaceae (gut microbiota; family level, 5 days TAC): increase
- relative abundance of Akkermansia (gut microbiota; genus level, 5 days TAC): increased
- relative abundance of Alistipes (gut microbiota; genus level, 5 days TAC): increased
- relative abundance of Oscillibacter (gut microbiota; genus level, 5 days TAC): decreased
- relative abundance of Ruminococcus 2 (gut microbiota; genus level, 5 days TAC): decreased
- variability in the microbiota dataset accounted for by TAC administration (gut microbiota; genus level, after 5 days of treatment, PERMANOVA p < 0.05): 15%
- change in total bacterial load over time (total bacteria): did not observe any significant change
- stability of the solution validated for [3]: 15 days
- parent drug recovered unchanged in the faeces or urine [4]: less than 0.5%
- time of absorption peak after drug intake ([4]; human population): around 2 h
- time to steady-state (5 times the half-life) ([4]; human): ~ 60 h

SMILES: O[C@@H](COc1cccc2ncccc12)CN1CCN([C@@H]2c3ccccc3[C@@H]3[C@H](c4ccccc42)C3(F)F)CC1 [ZSQ, Zosuquidar]
- change in TAC AUC in comparison to TAC solely group ([2]; mouse, in vivo): significant increase
- Ki (CYP3A): ~3.8 µM
- affinity for CYP3A lower than for ABCB1 (ABCB1 [5]; CYP3A vs ABCB1): more than 60 times
- Ki (ABCB1 [5]): ~0.059 µM

SMILES: C=CCC1C=C(C)CC(C)CC(OC)C2OC(O)(C(C)CC2OC)C(O)C(=O)N2CCCCC2C(=O)OC(C(C)=CC2CCC(O)C(OC)C2)C(C)C(O)CC1=O (centres unmarked) [bacteria-derived TAC metabolite]
- bacteria-derived TAC metabolite as share of the parent drug ([4]; human, in vivo): ≤ 5 % of the parent drug

Source: PMC10324113, “Gut microbiome modulates tacrolimus pharmacokinetics through the transcriptional regulation of ABCB1” (Microbiome, 2023)
